According to patent US7384949B2, “Thieno(3,2-d)pyrimidines and furano(3,2-d)pyrimidines and their use as purinergic receptor antagonists” (Vernalis Research Limited, priority 2001, dated 2008):

Assays:
catalepsy = conditions: cited from earlier work
[1] = target: human adenosine A2A receptors (Homo sapiens, UniProt P29274); test: in vitro binding to human adenosine A2A receptors, displacement of [3H]-CGS 21680; conditions: hA2A receptors, radioligand [3H]-CGS 21680
From the text: Adenosine Receptor Binding Binding Affinities at hA2A Receptors

Parkinsonian patients = conditions: cited from earlier work

Sequence of human adenosine A2A receptors (P29274 whole entry): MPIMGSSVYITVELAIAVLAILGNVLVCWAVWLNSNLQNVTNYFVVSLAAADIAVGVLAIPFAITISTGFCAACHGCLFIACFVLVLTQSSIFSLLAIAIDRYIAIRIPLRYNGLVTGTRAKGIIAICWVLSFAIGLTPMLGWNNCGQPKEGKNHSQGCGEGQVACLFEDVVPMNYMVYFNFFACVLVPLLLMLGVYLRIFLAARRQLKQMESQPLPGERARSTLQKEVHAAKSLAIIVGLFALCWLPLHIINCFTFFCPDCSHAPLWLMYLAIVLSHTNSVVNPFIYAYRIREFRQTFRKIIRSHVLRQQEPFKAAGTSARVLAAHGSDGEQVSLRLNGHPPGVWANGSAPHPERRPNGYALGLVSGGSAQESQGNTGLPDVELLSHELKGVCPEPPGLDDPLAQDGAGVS

CCCn1c(=O)c2c(nc(/C=C/c3ccc(OC)c(OC)c3)n2C)n(CCC)c1=O [KF 17837, (E)-8-(3,4-dimethoxystyryl)-1,3-dipropyl-7-methylxanthine]
anticataleptic effects of a subthreshold dose of L-DOPA plus benserazide (catalepsy; in vivo): potentiated | catalepsy induced by haloperidol and reserpine (catalepsy; in vivo): reduced | cataleptic responses induced by intracerebroventricular CGS 21680 (catalepsy; oral administration): significantly ameliorated

COCCNc1nc(-c2ccco2)c2scc(Br)c2n1 [Example 71]
melting point: 65 to 65.4 °C | Ki [1]: 8 nM

CC(C)c1nc(-c2ccccn2)c2sccc2n1 [Example 70, 2-isopropyl-4-(2-pyridyl)thieno[3,2-d]pyrimidine]
Ki [1]: 4 nM

O=C(NCCNc1nc(-c2ccco2)c2sccc2n1)OCc1ccccc1 [Example 89, benzyl (2-(4-(2-furyl)thieno[3,2-d]pyrimidine-2-ylamino)ethyl)carbamate]
Ki [1]: 20 nM

C=CCNc1nc(-c2ccco2)c2sccc2n1 [Example 40, N-allyl-4-(2-furyl)thieno[3,2-d]pyrimidine-2-amine]
melting point: 101 to 102 °C | Ki [1]: 19 nM

CC(C)(C)c1nc(-c2nccs2)c2sccc2n1 [Example 139, 2-tert-butyl-4-(2-thiazolyl)thieno[3,2-d]pyrimidine]
Ki [1]: 3 nM

Cc1nc(-c2nc(N(C)C)nc3ccsc23)sc1C [Example 105, N,N-dimethyl-4-(4,5-dimethyl-2-thiazolyl)thieno[3,2-d]pyrimidine-2-amine]
Ki [1]: 6 nM

Nc1nc(-c2ccco2)c2sccc2n1 [Example 79, 4-(2-furyl)thieno[3,2-d]pyrimidine-2-amine]
Ki [1]: 14 nM

Cn1c(=O)c2[nH]cnc2n(C)c1=O [theophylline, 1,3-dimethylxanthine]
mean objective disability scores (Parkinsonian patients; 15 Parkinsonian patients, up to 12 weeks, 150 mg/day): significant improvements | patients reporting moderate or marked subjective improvement (Parkinsonian patients; of 15 Parkinsonian patients, up to 12 weeks, 150 mg/day): 11 | serum theophylline levels (Parkinsonian patients; slow release oral preparation 150 mg/day, after one week): 4.44 mg/L

CC(C)c1nc(-c2nccs2)c2sccc2n1 [Example 113, 2-isopropyl-4-(2-thiazolyl)thieno[3,2-d]pyrimidine]
Ki [1]: 1 nM

CN(C)c1nc(-c2nccs2)c2sccc2n1 [Example 65, N,N-dimethyl-4-(2-thiazolyl)thieno[3,2-d]pyrimidine-2-amine]
Ki [1]: 2 nM

ClCCc1nc(-c2nccs2)c2sccc2n1 [Example 154, 2-(2-chloroethyl)-4-(2-thiazolyl)thieno[3,2-d]pyrimidine]
Ki [1]: 6 nM

OCCNc1nc(-c2ccco2)c2scc(Br)c2n1 [Example 15, 7-bromo-4-(2-furyl)-N-(2-hydroxyethyl)thieno[3,2-d]pyrimidine-2-amine]
melting point: 173.4 to 174.4 °C | Ki [1]: 11 nM

Nc1nc(-c2nccs2)c2sccc2n1 [Example 110, 4-(2-thiazolyl)thieno[3,2-d]pyrimidine-2-amine]
Ki [1]: 35 nM

CCc1nc(-c2nc(C)cs2)c2sccc2n1 [Example 80, 2-ethyl-4-(4-methyl-2-thiazolyl)thieno[3,2-d]pyrimidine]
Ki [1]: 1 nM

CCc1nc(-c2nccs2)c2sccc2n1 [Example 82, 2-ethyl-4-(2-thiazolyl)thieno[3,2-d]pyrimidine]
Ki [1]: 2 nM

Cc1cnc(-c2nc(N(C)C)nc3ccsc23)s1 [Example 104, N,N-dimethyl-4-(5-methyl-2-thiazolyl)thieno[3,2-d]pyrimidine-2-amine]
Ki [1]: 5 nM
